As a reminder, the IC50 is the concentration needed to halve the response being measured. Broadly, the inhibition in vivo is the share of the control response that was lost under treatment.

This passage reports IC50 and inhibition in vivo results from ChEMBL document CHEMBL5214882, “Targeting Atg4B for cancer therapy: Chemical mediators” (Eur J Med Chem, 2021).

One assay has as its target T1, Cysteine protease ATG4B (Homo sapiens, UniProt Q9Y4P1).
T1 sequence (Q9Y4P1 whole entry): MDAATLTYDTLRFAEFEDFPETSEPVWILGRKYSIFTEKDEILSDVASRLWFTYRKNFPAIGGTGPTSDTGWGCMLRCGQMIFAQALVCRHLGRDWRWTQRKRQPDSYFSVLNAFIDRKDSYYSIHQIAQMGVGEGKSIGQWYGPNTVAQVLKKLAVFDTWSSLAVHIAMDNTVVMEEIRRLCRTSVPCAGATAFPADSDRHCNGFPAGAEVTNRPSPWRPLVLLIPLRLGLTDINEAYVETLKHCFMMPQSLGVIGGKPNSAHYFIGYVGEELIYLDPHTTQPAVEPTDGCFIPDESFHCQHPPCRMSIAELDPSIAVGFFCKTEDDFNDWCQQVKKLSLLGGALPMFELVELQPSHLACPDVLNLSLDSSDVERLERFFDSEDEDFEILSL
The assay can be described thus: Inhibition of ATG4B (unknown origin) using proLC3B as substrate by FRET-LC3 assay.

The next assay has as its system HCT-116. The assay can be described thus: Antitumor activity against human HCT-116 cells […] in mouse assessed as tumor growth inhibition at 50 mg/kg,sc administered for 5 weeks by 3 times a week. Particulars: HCT-116, 840 h. The assay is classed as functional.

In turn, `O=C(N[C@@H](Cc1ccccc1)C(=O)CCl)OCc1ccccc1` displayed an IC50 at Cysteine protease ATG4B of 3.3 µM.

As for `COc1ccc(Nc2cc(C)nc(Nc3ccc(-c4cc5ccccc5o4)cc3)n2)cc1`, in the assay on HCT-116, the inhibition in vivo at 50 mg/kg is 75%. For `Cc1cc(O)c2c(=O)c3c(O)cc(O)c4c5c(O)cc(O)c6c(=O)c7c(O)cc(C)c8c1c2c(c34)c(c78)c65` [HYPERICIN], the IC50 against Cysteine protease ATG4B came to 8.9 µM.
